These results are taken from patent EP0845478B1, “Reductive alkylation of glycopeptide antibiotics” (ELI LILLY AND COMPANY, priority 1996, dated 1998).

Entries after “also recorded” stand apart in the source; their conditions may differ.

Series [1] in a line: Solubility of copper salts in methanol, with pH. The class given is physicochemical. As to conditions: for pH: pH of copper salt (0.165 mmol) in 50 mL methanol after 15 min stirring, before nucleus is added; for Salt Solubility in MeOH: copper salt (0.165 mmol) in 50 mL methanol, stirred at ambient temperature for 15 min. Here is the method: (§1) The same copper salts were further evaluated for their solubility in methanol and for the solubility of the starting glycopeptide antibiotic in their presence. The procedure was as follows: the copper salt (0.165 mmol) was added to 50 mL methanol and stirred at ambient temperature for 15 min. Solubility data was recorded as well as the pH. […] Solubility and pH data was recorded.

The nature of series [2]: Solubility of the starting glycopeptide antibiotic (nucleus) in methanol in the presence of the copper salt, with pH. In kind it is physicochemical. As to conditions: stirred 15 min; for pH: pH after addition of glycopeptide nucleus (0.26 mmol) to copper salt in 50 mL methanol; for nucleus solubility in presence of salt: Glycopeptide nucleus (0.55 g, 0.26 mmol) added to copper salt (0.165 mmol) in 50 mL methanol. As for the experimental part: as §1

With `CCCCC(CC)C(=O)[O-].CCCCC(CC)C(=O)[O-].[Cu+2]` (centres unmarked) [Cu(2-ethylhexanoate)2], the pH is recorded as 6.5 in series [1] and roughly 6.7 in series [2].
As for `O=C([O-])C(F)(F)F.O=C([O-])C(F)(F)F.[Cu+2]` [Cu(O2CCF3)2], in series [1], the “Salt Solubility in MeOH” value was “soluble, clear lite blue” and the pH is 4.4. Further, in series [2], the “nucleus solubility in presence of salt” value is “soluble, clear purple” and the pH came to 6.2.
For `CC(=O)[O-].CC(=O)[O-].[Cu+2]` [Cu(OAc)2], the pH in series [1] is 6.5; in series [2] it was roughly 6.7.
For the molecule `[Cu+2].[OH-].[OH-]` [Cu(OH)2], in series [1], the “Salt Solubility in MeOH” value is “nearly insoluble; also recorded: low, cloudy lite blue soln” and the pH worked out at 6.2. In series [2], the “nucleus solubility in presence of salt” value is “slightly, cloudy lite blue” and the pH stood at 7.0.
On to `O=C([O-])CCCC1CCCCC1.O=C([O-])CCCC1CCCCC1.[Cu+2]` [Cu(cyclohexanebutyrate)2], for which, in series [1], the “Salt Solubility in MeOH” value is given as “faint cloudiness, lite blue-green” and the pH is 6.0. Further, in series [2], the “nucleus solubility in presence of salt” value is reported as “complete dissolution; also recorded: soluble, clear purple” and the pH is roughly 6.7.
For `[Br][Cu][Br]` [CuBr2], in series [1], the “Salt Solubility in MeOH” value was “soluble, clear yellow” and the pH came to 2.8. In series [2], the “nucleus solubility in presence of salt” value was “soluble, clear purple” and the pH was found to be 5.9.
`[Cl][Cu][Cl]` [CuCl2]: in series [1], the “Salt Solubility in MeOH” value is given as “soluble, clear colorless” and the pH was determined as 3.2. Besides, in series [2], the “nucleus solubility in presence of salt” value was “slightly, cloudy purple” and the pH was found to be 6.6.
`[F][Cu][F]` [CuF2]: in series [1], the “Salt Solubility in MeOH” value is “nearly insoluble; also recorded: low, cloudy white soln” and the pH was 5.9. Further, in series [2], the “nucleus solubility in presence of salt” value is “slightly, cloudy pink” and the pH is on record as 7.0.
Take `O.O.O.O.O.O=S(=O)([O-])[O-].[Cu+2]` [CuSO4·5H2O]: in series [1], the “Salt Solubility in MeOH” value is recorded as “soluble, clear colorless” and the pH came to 3.7. Further, in series [2], the “nucleus solubility in presence of salt” value is “slightly, cloudy purple” and the pH worked out at 6.2.
